Measured values taken from ChEMBL document CHEMBL1914284, “Pyrazinamide, but not pyrazinoic acid, is a competitive inhibitor of NADPH binding to Mycobacterium tuberculosis fatty acid synthase I” (Bioorg Med Chem Lett, 2011).
Calls of active or inactive are those of the source. The rule behind the calls is not given here.

Columns and labels:
[1] = system: Mycobacterium tuberculosis; experiment: Binding affinity to Mycobacterium tuberculosis fatty acid synthase 1 at 500 uM by STD NMR spectrophotometric assay
[2] = system: Mycobacterium tuberculosis; experiment: Binding affinity to Mycobacterium tuberculosis fatty acid synthase 1 at 8 mM by STD NMR spectrophotometric assay
[3] = system: Mycobacterium tuberculosis; experiment: Binding affinity to Mycobacterium tuberculosis fatty acid synthase 1 at 350 uM by STD NMR spectrophotometric assay
[4] = Competitive inhibition of Mycobacterium tuberculosis fatty acid synthase 1 assessed as inhibition of NADPH oxidation by STD NMR spectrophotometric analysis
[5] = Binding affinity to Mycobacterium tuberculosis fatty acid synthase 1 by STD NMR spectrophotometric analysis in presence of increasing concentration of NADPH

Compound: CC[C@@H](CO)NCCN[C@@H](CC)CO
- Activity [1]: inactive

Compound: O=C(O)c1cnccn1
- Activity [2]: Active

Compound: C/C=C/C/C=C/CCC(=O)[C@H]1O[C@H]1C(N)=O
- Activity [3]: Active

Compound: NC(=O)c1cnccn1 [PYRAZINAMIDE]
- Activity [2]: Active
- Ki [4]: 41 µM
- Kd [5]: 70 µM
